Data: US10889834B2, “Methods and compositions for enhancing targeted transgene integration” (Sangamo BioSciences, Inc., priority 2014, dated 2021)

Tested on: Hepa1-6 cells
Assay: Factor IX production by ELISA in Hepa1-6 cells treated with topoisomerase inhibitor and FIX donor AAV (integration at albumin locus)
Assay type: cell-based, mouse
Conditions: 0.5-5 uM inhibitor, FIX measured at days 4 and 7
Protocol: For instance, one-hundred thousand Hepa1-6 cells were seeded per well of a 24-well dish and grown until 70% confluent in DMEM+10% FBS. […] Cells were then transfected with one of two Factor IX (FIX)-containing adeno-associated viruses (AAVs) donors (e.g., AAV2/6 vectors at 6e10 vg per sample) and Factor IX production on days 0-4 (day 4) and days 5-7 (day 7) assayed by ELISA.
The FIX donor AAVs contain homology arms (complementary to the 3′ end of the mouse albumin gene) flanking an albumin 3′ intron splice acceptor-albumin 3′ exon-2A-Factor IX cassette. In one instance, the Factor IX cassette was positioned in the forward orientation (F), allowing Factor IX to be produced if the DNA was integrated into the Albumin locus through HDR by the use of the homology arms.
Therefore, we determined the stimulation of Factor IX integration/expression that is specific to integration at the albumin gene in the proper orientation; this number is roughly equal to the Factor IX produced from the forward-orientation virus minus the Factor IX produced by the reverse-orientation virus.

Structure (SMILES): CC[C@@]1(O)C(=O)OCc2c1cc1n(c2=O)Cc2cc3ccccc3nc2-1 [camptothecin]
- FIX protein (forward-orientation AAV donor) (human FIX AAV donor in forward (F) orientation): dose-dependent increase in FIX protein
- FIX protein (reverse-orientation AAV donor) (human FIX AAV donor in reverse (R) orientation): generally not
